# Source: patent US20060100199A1, “Novel condensed imidazole derivatives” (priority 2003, published 2006)
# Counter-ions that a name gives are not always drawn.
# Legend:
# [1] = biological target: T1, CYP2C9 (Homo sapiens, UniProt P11712); test: Assessment for drug-metabolizing enzyme (cytochrome P450), CYP2C9; format: in vitro ADME; conditions: recombinant P450, fluorescent substrate MFC
# T1 construct: purchased GENTEST Corp
# Description: (§1) <Assessment for Drug-Metabolizing Enzyme (Cytochrome P450)>
# (§2) The experimental conditions used are shown below. The fluorescence intensity was determined using a plate reader (CYTO FLUOR Multi-Well Plate Reader Series 4000; PerSeptive Biosystems Corp.). The degree of inhibition was determined as a mean value from nine independent assays […] using as an index the intensity fluorescence emitted from the metabolite of the fluorescent substrate.
# (§3) The substrates, metabolites, inhibitors, excitation wavelengths, and fluorescence wavelengths used in the assay are shown in Table 2.
# [2] = biological target: T2, CYP2D6 (Homo sapiens, UniProt P10635); test: Assessment for drug-metabolizing enzyme (cytochrome P450), CYP2D6; format: in vitro ADME; conditions: recombinant P450, fluorescent substrate AMMC
# T2 construct: purchased GENTEST Corp
# Description: as §1, §2, §3
# [3] = test system: male C57BL/6N mice; test: Acceptable timing of administration in in vivo test; conditions: oral, simultaneously with vs one hour before glucose loading (2 g/kg); improvement factor for glucose tolerance compared
# Description: Acceptable Timing of Administration in in vivo Test
# The respective tests described below were carried out in combination with the in vivo test (administration before 0.5 hour) as described in Assay Example 2:
# 1. A test compound is administered simultaneously with glucose loading (2 g/kg) (the test compound is suspended in an aqueous solution of 0.5% methyl cellulose; the solution is combined with an equal volume of a glucose solution; and the mixture is administered orally at a dose of 10 ml/kg);
# 2. A test compound is administered one hour before glucose loading (2 g/kg) (the test compound suspended in an aqueous solution of 0.5% methyl cellulose is administered orally one hour before the oral administration of the glucose solution; each is given orally at a dose of 10 ml/kg).
# The improvement factor for glucose tolerance is estimated in each test.
# [4] = biological target: T3, hERG channel (Homo sapiens, UniProt Q12809); test: Suppression of hERG channel current; format: cell-based; conditions: HEK-293 cells with hERG channel gene (subtype 1), patch clamp, peak tail current at −50 mV
# T3 construct: expressed in transfected cells; host or cells: HEK-293 cells (cell line established by the inventors)
# Description: <Suppression of hERG Channel Current>
# (1) Activity towards inhibiting the hERG channel current was evaluated according to the report Zhou, Z et al, Biophysical Journal, 74(1), 230-241 (1998).
# (2) This experiment was carried out using HEK-293 cells into which the hERG channel gene (subtype 1) had been introduced (the cell line was established by the inventors).
# (3) One to several days before the experiment, cells were plated on a poly-lysine-coated glass plate. The cells were cultured until the day of the experiment. At the start of the experiment, the cell-seeded glass plate was transferred into a bath for current measurement. The hERG channel current was measured by the voltage clamp method using the patch clamp technique. The current was measured using a current amplifier (Axon Instruments). The current was recorded and analyzed using pCLAMP software (Axon Instruments).
# (4) The hERG channel current was induced by applying to the cells a depolarizing pulse from a holding potential of −80 mV to +20 mV for 5 seconds and to −50 mV for 4 seconds, at 20 second intervals. After the current became stable in a control solution, the cells were perfused with solutions containing various concentrations of test compounds.
# (5) The amplitude of the hERG channel current was defined as the peak value of the tail current observed upon restoring the potential to −50 mV. The inhibiting effect of a test compound on the hERG channel current (IC50) was estimated based on the change in the peak value of tail current upon addition of the test compound at various concentrations. The peak value of tail current recorded for a normal solution was taken as 100%.
# [5] = biological target: T4, CYP3A4 (Homo sapiens, UniProt P08684); test: Assessment for drug-metabolizing enzyme (cytochrome P450), CYP3A4; format: in vitro ADME; conditions: recombinant P450, fluorescent substrate BFC
# T4 construct: purchased GENTEST Corp
# Description: as §1, §2, §3
# [6] = biological target: T5, CYP1A2 (Homo sapiens, UniProt P05177); test: Assessment for drug-metabolizing enzyme (cytochrome P450), CYP1A2; format: in vitro ADME; conditions: recombinant P450, fluorescent substrate CEC
# T5 construct: purchased GENTEST Corp
# T5 sequence (P05177 1-516): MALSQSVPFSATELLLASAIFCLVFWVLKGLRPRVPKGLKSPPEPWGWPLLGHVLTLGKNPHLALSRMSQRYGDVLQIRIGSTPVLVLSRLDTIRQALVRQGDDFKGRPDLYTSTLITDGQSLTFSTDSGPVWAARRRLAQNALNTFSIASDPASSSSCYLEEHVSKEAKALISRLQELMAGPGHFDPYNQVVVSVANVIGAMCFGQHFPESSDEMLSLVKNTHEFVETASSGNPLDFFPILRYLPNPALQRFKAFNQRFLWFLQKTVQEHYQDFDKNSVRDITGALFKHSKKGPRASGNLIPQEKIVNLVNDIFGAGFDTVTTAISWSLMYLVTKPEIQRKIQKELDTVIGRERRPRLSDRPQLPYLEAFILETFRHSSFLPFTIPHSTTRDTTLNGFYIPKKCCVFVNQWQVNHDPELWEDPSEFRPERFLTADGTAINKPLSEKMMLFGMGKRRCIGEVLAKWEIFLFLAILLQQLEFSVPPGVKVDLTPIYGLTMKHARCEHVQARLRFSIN
# Description: as §1, §2, §3
# [7] = biological target: T6, CYP2C19 (Homo sapiens, UniProt P33261); test: Assessment for drug-metabolizing enzyme (cytochrome P450), CYP2C19; format: in vitro ADME; conditions: recombinant P450, fluorescent substrate CEC
# T6 construct: purchased GENTEST Corp
# Description: as §1, §2, §3
# [8] = test system: fasted male Wistar rats; test: Effect on the blood glucose level of fasted male Wistar rats (in vivo test); conditions: oral dose of 10-30 (mg/kg); 0.5, 1 and 3 hours after administration; compared with control group treated with the medium alone
# Description: Purpose: Effect of a Test Compound on the Blood Glucose Level of Fasted Male Wistar Rats
# Animal: male Wistar rats (purchased from Charles River Japan, Inc.)
# A test compound was suspended in 0.5% methyl cellulose (MC) solution and administered orally at a dose of 5 mL/kg. The control group was treated with a 0.5% MC solution. The solution was administered orally at a dose of 5 mL/kg.
# Immediately before administering a test compound or 0.5% MC solution, and 0.5, 1, and 3 hours after the administration, without anesthetic the caudal vein was lightly cut with a razor blade to let the blood out. 10 μL of blood was collected and combined with 140 μL of 0.6 M perchloric acid solution. The sample was centrifuged at 3000 g at 4° C. for 10 minutes and the resultant supernatant was assayed with the Glucose CII TEST WAKO (Wako Pure Chemical Industries).
# [9] = biological target: T7, Porcine kidney-derived DPP-IV (Sus scrofa, UniProt P22411); test: DPPIV-inhibiting activity assay; format: biochemical; conditions: Gly-Pro-p-nitroanilide 0.33 mM, reaction time 20 minutes, absorbance at 405 nm
# T7 construct: Porcine kidney-derived DPP-IV was dissolved in a reaction buffer; from tissue; host or cells: porcine kidney
# Description: DPPIV-Inhibiting Activity Assay
# Porcine kidney-derived DPP-IV was dissolved in a reaction buffer (50 mM Tris-HCl (pH 7.4)/0.1% BSA) at a concentration of 10 mg/ml. After 110 μl of this solution had been combined with 15 μl of an agent, the mixture was incubated at room temperature for 20 minutes. 25 μl of 2 mM Gly-Pro-p-nitroanilide was added (to a final concentration of 0.33 mM) to the solution to initiate the enzyme reaction. The reaction time was 20 minutes. 25 μl of 1N phosphoric acid solution was added to the reaction solution to quench the reaction.
# T7 sequence (P22411 whole entry): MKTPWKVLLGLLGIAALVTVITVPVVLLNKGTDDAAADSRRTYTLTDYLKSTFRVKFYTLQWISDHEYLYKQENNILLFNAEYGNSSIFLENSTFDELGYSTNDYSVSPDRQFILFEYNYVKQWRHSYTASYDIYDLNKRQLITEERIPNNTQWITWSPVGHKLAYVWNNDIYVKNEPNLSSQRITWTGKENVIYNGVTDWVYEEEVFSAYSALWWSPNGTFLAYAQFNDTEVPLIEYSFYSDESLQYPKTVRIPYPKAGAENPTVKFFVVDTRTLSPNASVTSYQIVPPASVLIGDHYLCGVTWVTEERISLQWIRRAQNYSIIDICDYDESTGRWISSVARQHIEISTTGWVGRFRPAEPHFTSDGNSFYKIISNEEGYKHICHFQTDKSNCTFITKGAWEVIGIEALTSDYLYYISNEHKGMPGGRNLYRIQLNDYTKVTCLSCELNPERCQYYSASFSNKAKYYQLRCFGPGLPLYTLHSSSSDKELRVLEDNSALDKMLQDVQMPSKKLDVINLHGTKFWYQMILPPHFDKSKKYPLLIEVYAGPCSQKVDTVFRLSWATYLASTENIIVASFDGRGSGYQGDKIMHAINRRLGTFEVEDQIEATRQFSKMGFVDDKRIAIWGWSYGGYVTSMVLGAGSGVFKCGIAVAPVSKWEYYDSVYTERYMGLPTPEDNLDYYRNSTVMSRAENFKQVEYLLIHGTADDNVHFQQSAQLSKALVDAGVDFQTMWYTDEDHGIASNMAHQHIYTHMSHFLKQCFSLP
# T2 sequence (P10635 whole entry): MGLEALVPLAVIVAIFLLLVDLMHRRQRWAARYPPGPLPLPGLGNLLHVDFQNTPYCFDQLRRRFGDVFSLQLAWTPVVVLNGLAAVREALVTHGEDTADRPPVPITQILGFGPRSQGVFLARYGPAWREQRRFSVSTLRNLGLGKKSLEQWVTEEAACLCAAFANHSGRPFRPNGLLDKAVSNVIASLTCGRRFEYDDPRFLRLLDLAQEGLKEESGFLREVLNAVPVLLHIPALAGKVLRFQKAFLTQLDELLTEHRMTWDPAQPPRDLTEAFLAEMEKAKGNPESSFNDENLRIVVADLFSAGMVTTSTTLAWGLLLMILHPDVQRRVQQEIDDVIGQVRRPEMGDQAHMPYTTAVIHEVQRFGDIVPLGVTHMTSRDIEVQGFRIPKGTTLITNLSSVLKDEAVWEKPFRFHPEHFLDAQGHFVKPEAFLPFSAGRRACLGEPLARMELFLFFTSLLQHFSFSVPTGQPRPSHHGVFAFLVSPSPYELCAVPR
# T1 sequence (P11712 whole entry): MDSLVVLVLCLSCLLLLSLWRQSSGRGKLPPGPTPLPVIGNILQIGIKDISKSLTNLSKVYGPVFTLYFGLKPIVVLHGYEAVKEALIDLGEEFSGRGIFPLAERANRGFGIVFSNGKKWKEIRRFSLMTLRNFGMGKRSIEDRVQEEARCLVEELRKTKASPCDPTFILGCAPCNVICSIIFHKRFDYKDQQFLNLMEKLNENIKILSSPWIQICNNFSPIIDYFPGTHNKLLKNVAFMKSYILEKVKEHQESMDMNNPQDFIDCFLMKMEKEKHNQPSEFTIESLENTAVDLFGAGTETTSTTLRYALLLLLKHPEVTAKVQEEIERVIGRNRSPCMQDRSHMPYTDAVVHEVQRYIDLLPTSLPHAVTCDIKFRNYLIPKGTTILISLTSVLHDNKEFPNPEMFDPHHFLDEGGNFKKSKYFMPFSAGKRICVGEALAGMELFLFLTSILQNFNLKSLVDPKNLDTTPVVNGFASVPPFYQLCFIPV
# T4 sequence (P08684 whole entry): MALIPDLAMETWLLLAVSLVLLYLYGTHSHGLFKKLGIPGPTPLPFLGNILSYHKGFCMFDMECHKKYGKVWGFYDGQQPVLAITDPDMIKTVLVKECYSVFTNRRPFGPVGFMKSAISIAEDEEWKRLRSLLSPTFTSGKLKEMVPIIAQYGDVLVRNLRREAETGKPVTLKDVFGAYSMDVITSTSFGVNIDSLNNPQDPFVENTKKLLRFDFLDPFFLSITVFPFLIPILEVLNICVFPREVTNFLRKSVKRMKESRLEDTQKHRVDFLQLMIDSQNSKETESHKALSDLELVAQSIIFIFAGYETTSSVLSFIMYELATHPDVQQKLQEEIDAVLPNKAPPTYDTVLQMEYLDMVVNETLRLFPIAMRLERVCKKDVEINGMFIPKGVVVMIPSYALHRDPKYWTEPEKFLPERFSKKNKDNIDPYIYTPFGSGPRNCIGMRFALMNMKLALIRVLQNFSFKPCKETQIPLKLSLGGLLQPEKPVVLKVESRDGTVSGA
# T6 sequence (P33261 whole entry): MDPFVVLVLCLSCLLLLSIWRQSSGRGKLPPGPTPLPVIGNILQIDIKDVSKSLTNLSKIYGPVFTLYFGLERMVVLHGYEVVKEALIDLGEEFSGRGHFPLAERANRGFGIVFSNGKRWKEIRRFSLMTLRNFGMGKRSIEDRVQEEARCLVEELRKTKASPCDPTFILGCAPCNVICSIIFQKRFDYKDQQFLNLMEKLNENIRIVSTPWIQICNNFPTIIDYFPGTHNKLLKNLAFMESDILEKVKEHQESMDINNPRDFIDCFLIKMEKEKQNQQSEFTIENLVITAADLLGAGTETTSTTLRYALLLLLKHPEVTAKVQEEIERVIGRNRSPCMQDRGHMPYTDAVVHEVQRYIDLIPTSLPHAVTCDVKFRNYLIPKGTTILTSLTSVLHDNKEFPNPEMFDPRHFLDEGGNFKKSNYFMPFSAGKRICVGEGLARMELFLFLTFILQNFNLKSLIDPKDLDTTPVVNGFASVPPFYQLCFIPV
# T3 sequence (Q12809 whole entry): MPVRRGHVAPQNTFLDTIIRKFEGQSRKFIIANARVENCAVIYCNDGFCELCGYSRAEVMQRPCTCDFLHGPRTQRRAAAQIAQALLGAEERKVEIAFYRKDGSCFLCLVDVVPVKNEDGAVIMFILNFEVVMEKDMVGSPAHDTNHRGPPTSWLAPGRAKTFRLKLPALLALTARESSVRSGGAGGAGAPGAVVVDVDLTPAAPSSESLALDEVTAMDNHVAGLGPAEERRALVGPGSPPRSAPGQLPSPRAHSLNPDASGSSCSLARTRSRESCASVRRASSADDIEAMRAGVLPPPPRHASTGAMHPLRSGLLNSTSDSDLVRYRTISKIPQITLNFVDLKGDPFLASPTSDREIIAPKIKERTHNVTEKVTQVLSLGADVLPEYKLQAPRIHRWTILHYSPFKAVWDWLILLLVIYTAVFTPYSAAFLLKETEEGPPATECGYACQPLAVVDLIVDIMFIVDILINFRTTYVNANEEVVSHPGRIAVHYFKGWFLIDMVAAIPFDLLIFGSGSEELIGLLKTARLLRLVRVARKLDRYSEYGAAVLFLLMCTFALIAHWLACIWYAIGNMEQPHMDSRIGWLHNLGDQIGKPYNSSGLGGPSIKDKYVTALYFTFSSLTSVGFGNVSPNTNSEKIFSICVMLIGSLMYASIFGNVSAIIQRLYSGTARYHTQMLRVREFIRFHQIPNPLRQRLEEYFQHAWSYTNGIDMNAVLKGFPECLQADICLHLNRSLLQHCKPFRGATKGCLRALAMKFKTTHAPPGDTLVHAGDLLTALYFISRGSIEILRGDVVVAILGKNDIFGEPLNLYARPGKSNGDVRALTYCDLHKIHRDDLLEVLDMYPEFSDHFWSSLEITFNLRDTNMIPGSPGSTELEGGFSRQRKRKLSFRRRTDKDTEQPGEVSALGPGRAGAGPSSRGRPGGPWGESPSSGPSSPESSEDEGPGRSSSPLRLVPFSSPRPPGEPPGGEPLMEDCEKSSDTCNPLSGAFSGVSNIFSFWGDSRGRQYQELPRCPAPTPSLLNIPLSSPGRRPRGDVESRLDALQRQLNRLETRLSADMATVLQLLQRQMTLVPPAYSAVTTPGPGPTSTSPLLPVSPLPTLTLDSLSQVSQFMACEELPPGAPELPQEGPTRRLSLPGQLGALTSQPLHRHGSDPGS
IC50 [1] [µM],IC50 [2] [µM],IC50 [5] [µM],IC50 [6] [µM],IC50 [7] [µM],IC50 [9] [µM],SMILES,range of acceptable timing of administration [3],IC50 [4] [µM],change in the blood glucose level [8]
≥ 10,≥ 10,≥ 10,≥ 10,≥ 10,,"CC#CCn1c(N2CCNCC2)nc2nc(C#N)n(C)c(=O)c21.O=C(O)C(F)(F)F [Example 82, 7-(2-Butynyl)-2-cyano-1-methyl-8-(piperazin-1-yl)-1,7-dihydropurin-6-one trifluoroacetate]",sufficiently wide ranges of acceptable timing of administration,≥ 30,no significant change
,,,,,0.211,"CC#CCn1c(N2CCNCC2)nc2nc(Oc3ccccc3CC(=O)OC)n(C)c(=O)c21 [Example 4, Methyl 2-[7-(2-butynyl)-1-methyl-6-oxo-8-(piperazin-1-yl)-6,7-dihydro-1H-purin-2-yloxy]phenylacetate trifluoroacetate]",,,
,,,,,0.00144,"CC#CCn1c(N2CCNCC2)nc2nc(Oc3ccccc3C(N)=O)n(Cc3ccc(C#N)cc3)c(=O)c21 [Example 235, 2-[7-(2-Butynyl)-1-(4-cyanobenzyl)-6-oxo-8-(piperazin-1-yl)-6,7-dihydro-1H-purin-2-yloxy]benzamide trifluoroacetate]",,,
≥ 10,≥ 10,≥ 10,≥ 10,≥ 10,,"CC#CCn1c(N2CCNCC2)nc2cnn(C)c(=O)c21 [Example 119, 3-(2-Butynyl)-5-methyl-2-(piperazin-1-yl)-3,5-dihydroimidazo[4,5-d]pyridazin-4-one]",sufficiently wide ranges of acceptable timing of administration,≥ 30,no significant change
≥ 10,≥ 10,≥ 10,≥ 10,≥ 10,,"CC#CCn1c(N2CCNCC2)nc2nc(C#N)n(Cc3ccccc3C#N)c(=O)c21.Cl [Example 229, 7-(2-Butynyl)-1-(2-cyanobenzyl)-6-oxo-8-(piperazin-1-yl)-6,7-dihydro-1H-purine-2-carbonitrile hydrochloride]",sufficiently wide ranges of acceptable timing of administration,≥ 30,no significant change
≥ 10,≥ 10,≥ 10,≥ 10,≥ 10,0.0153,"CC#CCn1c(N2CCNCC2)nc2nc(Oc3ccccc3C(N)=O)n(C)c(=O)c21 [Example 122, 2-[7-(2-Butynyl)-1-methyl-6-oxo-8-(piperazin-1-yl)-6,7-dihydro-1H-purin-2-yloxy]benzamide]",sufficiently wide ranges of acceptable timing of administration,≥ 30,no significant change
,,,,,0.0274,"CC#CCn1c(N2CCNCC2)nc2nc(C(N)=O)n(C)c(=O)c21 [Example 83, 7-(2-Butynyl)-1-methyl-6-oxo-8-(piperazin-1-yl)-6,7-dihydro-1H-purine-2-carboxamide]",,,
≥ 10,≥ 10,≥ 10,≥ 10,≥ 10,,"CC#CCn1c(N2CCCC(N)C2)nc2cnn(C)c(=O)c21.O=C(O)C(F)(F)F (centres unmarked) [Example 120, 2-(3-Aminopiperidin-1-yl)-3-(2-butynyl)-5-methyl-3,5-dihydroimidazo[4,5-d]pyridazin-4-one trifluoroacetate]",sufficiently wide ranges of acceptable timing of administration,≥ 30,no significant change
≥ 10,≥ 10,≥ 10,≥ 10,≥ 10,,"CC#CCn1c(N2CCNCC2)nc2cnn(Cc3ccccc3C#N)c(=O)c21.O=C(O)C(F)(F)F [Example 267, 2-[3-(2-Butynyl)-4-oxo-2-(piperazin-1-yl)-3,4-dihydroimidazo[4,5-d]pyridazin-5-ylmethyl]benzonitrile trifluoroacetate]",sufficiently wide ranges of acceptable timing of administration,≥ 30,no significant change

SMILES,IC50 [1] [µM],IC50 [2] [µM],IC50 [5] [µM],IC50 [6] [µM],IC50 [7] [µM],IC50 [9] [µM],range of acceptable timing of administration [3],IC50 [4] [µM],change in the blood glucose level [8]
"CC#CCn1c(N2CCNCC2)nc2nc(Oc3ccccc3C(N)=O)n(Cc3cccc(C#N)c3)c(=O)c21 [Example 238, 2-[7-(2-Butynyl)-1-(3-cyanobenzyl)-6-oxo-8-(piperazin-1-yl)-6,7-dihydro-1H-purin-2-yloxy]benzamide trifluoroacetate]",,,,,,0.00119,,,
